# Results: patent US6506339B1, “Method of sterilization” (Biomedical Design, Inc., priority 1997, dated 2003)
# Assays:
# Bacillus Subtilis spores = test: Sterilization test, Bacillus subtilis spores in cups with or without fixed heart valves, 40° C. (Example 2); format: cell-based; parameters: key: (+) Indicates growth; (−) indicates no growth or complete kill; settings: 20 mM EDC+1 mM Sulfo-NHS, 20% isopropyl alcohol
# Protocol: (§1) Porcine aortic roots are fixed by cross-linking according to the method described in U.S. Pat. No. 5,447,536. After fixation, the valves are stored in 10 mM HEPES, 0.85% NaCl, 20% isopropyl alcohol, pH 7.4, at 4° C. The sterility tests described in the following examples are in most cases conducted in the presence of bioprosthetic heart valve tissue; when such tissue is not present, the solutions are simply filtered through a 0.45 micron filter attached to a funnel (filter funnel). The filters are then rinsed with peptone water to eliminate residual chemicals on the membrane that may prevent growth of the organisms tested. Such membrane filters are then incubated on TSA plates at about 32° to 33° C., e.g. 32.5° C. When an aortic valve is inoculated with microorganisms for test purposes and then submitted to sterilization, the solution is filtered as described above. The aortic valve tissue is then washed for 20 minutes in a reciprocating shaker in the presence of peptone water containing Tween 80 in order to extract all indigenous spores or microorganisms from the tissue. This solution is filtered and then incubated as described above. All microbiological testing is performed in a biological laminar flow hood to prevent contamination. The shrinkage temperature and the proteolytic (collagenase and protease) degradation tests are conducted as previously described in the '536 patent. Resistance to calcification is assessed by subdermal implantation of sterilized leaflets and aortic wall coupons in young rats, as also described in the '536 U.S. patent.
# A sterilization process similar to Example 1 is carried out using Bacillus Subtilis spores (˜10^6) inoculated in sterile cups some of which contain cross-linked heart valves that had been fixed by a process according to U.S. Pat. No. 5,447,536. A 10 mM HEPES, 0.85% NaCl, pH 6.5 solution containing 20 mM EDC and 1 mM Sulfo-NHS in the presence of 20% isopropyl alcohol was added for various periods of time (treatment duration). The cups and the heart valves were maintained at 40° C. for the term of the treatment. The solutions were then filtered and the filters incubated for up to 7 days (incubation duration) at about 32-33° C. using Trypticase Soy Agar (TSA) plates. All inoculations were done in duplicate.
# [1] = tested on: Mycobacterium Chelonae ATCC 35752; test: Sterilization test, Mycobacterium chelonae in sterile cups at room temperature (Example 1); format: cell-based; parameters: key: (+) Indicates growth; (−) indicates no growth; settings: 10 mM EDC+1 mM Sulfo-NHS
# Protocol: as §1
# Mycobacterium Chelonae ATCC 35752 (˜10^5) was inoculated in sterile cups. A 10 mM HEPES, 0.85% NaCl, pH 6.5 solution containing 10 mM EDC and 1 mM Sulfo-NHS in the presence or absence of 20% isopropyl alcohol was maintained in contact with the bacteria in the cups for various periods of time (treatment duration). The cups were maintained at room temperature, and the solutions were then filtered. The filters were then incubated at about 32-33° C. for up to 6 weeks (incubation duration) using either Trypticase Soy Agar (TSA) plates or Trypticase Soy Broth (TSB). All inoculations were done in duplicate.
smiles,measurement,setting,value
"CCN=C=NCCCN(C)C.Cl [EDC, 1-ethyl-3(3-dimethylaminopropyl)carbodiimide hydrochloride]",growth on TSA plates,"Bacillus Subtilis spores; with valves, treatment 48 hours, incubation 1 Day",−
same,growth on TSA plates,"Bacillus Subtilis spores; with valves, treatment 48 hours, incubation 7 Days",−
same,growth on TSA plates,"Bacillus Subtilis spores; with valves, treatment 72 hours, incubation 1 Day",−
same,growth on TSA plates,"Bacillus Subtilis spores; with valves, treatment 72 hours, incubation 7 Days",−
same,growth on TSA plates,"Bacillus Subtilis spores; without valves, treatment 24 hours, incubation 1 Day",−
same,growth on TSA plates,"Bacillus Subtilis spores; without valves, treatment 24 hours, incubation 7 Days",−
same,growth on TSA plates,"Bacillus Subtilis spores; without valves, treatment 48 hours, incubation 1 Day",−
same,growth on TSA plates,"Bacillus Subtilis spores; without valves, treatment 48 hours, incubation 7 Days",−
same,growth on TSA plates,"Bacillus Subtilis spores; without valves, treatment 72 hours, incubation 1 Day",−
same,growth on TSA plates,"Bacillus Subtilis spores; without valves, treatment 72 hours, incubation 7 Days",−
same,growth,"[1]; 20% isopropyl alcohol, treatment 0 hour, incubation 3 Week, TSA","+,+"
same,growth,"[1]; 20% isopropyl alcohol, treatment 0 hour, incubation 3 Week, TSB","+,+"
same,growth,"[1]; 20% isopropyl alcohol, treatment 0 hour, incubation 4 Week, TSA","+,+"
same,growth,"[1]; 20% isopropyl alcohol, treatment 0 hour, incubation 4 Week, TSB","+,+"
same,growth,"[1]; 20% isopropyl alcohol, treatment 0 hour, incubation 6 Week, TSA","+,+"
same,growth,"[1]; 20% isopropyl alcohol, treatment 0 hour, incubation 6 Week, TSB","+,+"
same,growth,"[1]; no isopropyl alcohol, treatment 0 hour, incubation 1 Day, TSA","+,+"
same,growth,"[1]; no isopropyl alcohol, treatment 0 hour, incubation 1 Day, TSB","+,+"
same,growth,"[1]; no isopropyl alcohol, treatment 0 hour, incubation 1 Week, TSA","+,+"
same,growth,"[1]; no isopropyl alcohol, treatment 0 hour, incubation 1 Week, TSB","+,+"
same,growth,"[1]; no isopropyl alcohol, treatment 0 hour, incubation 3 Week, TSA","+,+"
same,growth,"[1]; no isopropyl alcohol, treatment 0 hour, incubation 3 Week, TSB","+,+"
same,growth,"[1]; no isopropyl alcohol, treatment 0 hour, incubation 4 Week, TSA","+,+"
same,growth,"[1]; no isopropyl alcohol, treatment 0 hour, incubation 4 Week, TSB","+,+"
same,growth,"[1]; no isopropyl alcohol, treatment 0 hour, incubation 6 Week, TSA","+,+"
same,growth,"[1]; no isopropyl alcohol, treatment 0 hour, incubation 6 Week, TSB","+,+"
same,growth,"[1]; no isopropyl alcohol, treatment 12 hours, incubation 1 Day, TSA","+,+"
same,growth,"[1]; no isopropyl alcohol, treatment 12 hours, incubation 1 Day, TSB","+,+"
same,growth,"[1]; no isopropyl alcohol, treatment 12 hours, incubation 1 Week, TSA","+,+"
same,growth,"[1]; no isopropyl alcohol, treatment 12 hours, incubation 1 Week, TSB","+,+"
same,growth,"[1]; no isopropyl alcohol, treatment 12 hours, incubation 3 Week, TSA","+,+"
same,growth,"[1]; no isopropyl alcohol, treatment 12 hours, incubation 3 Week, TSB","+,+"
same,growth,"[1]; no isopropyl alcohol, treatment 12 hours, incubation 4 Week, TSA","+,+"
same,growth,"[1]; no isopropyl alcohol, treatment 12 hours, incubation 4 Week, TSB","+,+"
same,growth,"[1]; no isopropyl alcohol, treatment 12 hours, incubation 6 Week, TSA","+,+"
same,growth,"[1]; no isopropyl alcohol, treatment 12 hours, incubation 6 Week, TSB","+,+"
same,growth,"[1]; no isopropyl alcohol, treatment 24 hours, incubation 1 Day, TSA","−,−"
same,growth,"[1]; no isopropyl alcohol, treatment 24 hours, incubation 1 Day, TSB","−,−"
same,growth,"[1]; no isopropyl alcohol, treatment 24 hours, incubation 1 Week, TSA","+,+"
same,growth,"[1]; no isopropyl alcohol, treatment 24 hours, incubation 1 Week, TSB","+,+"
same,growth,"[1]; no isopropyl alcohol, treatment 24 hours, incubation 3 Week, TSA","+,+"
same,growth,"[1]; no isopropyl alcohol, treatment 24 hours, incubation 3 Week, TSB","+,+"
same,growth,"[1]; no isopropyl alcohol, treatment 24 hours, incubation 4 Week, TSA","+,+"
same,growth,"[1]; no isopropyl alcohol, treatment 24 hours, incubation 4 Week, TSB","+,+"
same,growth,"[1]; no isopropyl alcohol, treatment 24 hours, incubation 6 Week, TSA","+,+"
same,growth,"[1]; no isopropyl alcohol, treatment 24 hours, incubation 6 Week, TSB","+,+"
same,growth,"[1]; no isopropyl alcohol, treatment 48 hours, incubation 1 Day, TSA","−,−"
same,growth,"[1]; no isopropyl alcohol, treatment 48 hours, incubation 1 Day, TSB","−,−"
same,growth,"[1]; no isopropyl alcohol, treatment 48 hours, incubation 1 Week, TSA","−,−"
same,growth,"[1]; no isopropyl alcohol, treatment 48 hours, incubation 1 Week, TSB","−,−"
same,growth,"[1]; no isopropyl alcohol, treatment 48 hours, incubation 3 Week, TSA","−,−"
same,growth,"[1]; no isopropyl alcohol, treatment 48 hours, incubation 3 Week, TSB","−,−"
same,growth,"[1]; no isopropyl alcohol, treatment 48 hours, incubation 4 Week, TSA",−
same,growth,"[1]; no isopropyl alcohol, treatment 48 hours, incubation 4 Week, TSB",+
same,growth,"[1]; no isopropyl alcohol, treatment 48 hours, incubation 6 Week, TSA",−
same,growth,"[1]; no isopropyl alcohol, treatment 48 hours, incubation 6 Week, TSB",+
same,growth,"[1]; no isopropyl alcohol, treatment 72 hours, incubation 1 Day, TSA","−,−"
same,growth,"[1]; no isopropyl alcohol, treatment 72 hours, incubation 1 Day, TSB","−,−"
same,growth,"[1]; no isopropyl alcohol, treatment 72 hours, incubation 1 Week, TSA","−,−"
same,growth,"[1]; no isopropyl alcohol, treatment 72 hours, incubation 1 Week, TSB","−,−"
same,growth,"[1]; no isopropyl alcohol, treatment 72 hours, incubation 3 Week, TSA","−,−"
same,growth,"[1]; no isopropyl alcohol, treatment 72 hours, incubation 3 Week, TSB","−,−"
same,growth,"[1]; no isopropyl alcohol, treatment 72 hours, incubation 4 Week, TSA","−,−"
same,growth,"[1]; no isopropyl alcohol, treatment 72 hours, incubation 4 Week, TSB","−,−"
same,growth,"[1]; no isopropyl alcohol, treatment 72 hours, incubation 6 Week, TSA",−
same,growth,"[1]; no isopropyl alcohol, treatment 72 hours, incubation 6 Week, TSB",+
